# Measured values taken from patent US11420962B2, “Indene derivatives useful in treating pain and inflammation” (TARO PHARMACEUTICALS INC., priority 2018, dated 2022).
# Experiments:
# T cells = experiment: T cell proliferation (anti-CD3/anti-CD28 dynabeads, CCK-8); assay type: cell-based, mice; details: Table 4, mouse T cells, 72 hours after dynabeads, read-out: Scoring (IC50, cell proliferation)
# Description: Spleens were obtained from six male, CD-1 outbred mice, approximately 8 weeks old. Cells were harvested under sterile conditions by forcing each spleen though a cell filter (pore size 100 μm diameter). A homogenous cell suspension was obtained by washing the cells in fresh medium and passing cells through a smaller cell filter (pore size 70 μm).
# Untouched T cells were isolated using the Pan T cell isolation kit (Miltenyi Biotech). Briefly, cells were counted and incubated with the required volume of antibody cocktail for 5 minutes at 4° C. before addition of microbeads and incubation for 10 minutes at 4° C. Labeled cells were retained in a magnetic column while unlabeled cells (T cells) passed through the column and were retained for use in the assay.
# Cell viability was assessed by Trypan Blue exclusion and found to be >99% prior to transfer to plates. Isolated T cells were seeded out in 96 well plates at a density of 50,000 cells per well and allowed to incubate for 60 minutes in a humidified cell culture (37° C., 5% CO2) incubator prior to compound treatment. The media used for this assay (TexMACS, Miltenyi Biotech) was previously optimized for proliferation of T cells in serum free conditions.
# Representative compounds of the invention (i.e., test compounds) were prepared as 30 mM stocks in 100% DMSO. Test compounds were initially diluted in media to yield 3 mM stocks before an additional 1:10 dilution in media was performed to yield working stocks of 300 μM (1% DMSO). Subsequent dilutions were performed in media (supplemented with 1% DMSO). When added to the assay plates (1:10 dilution), these yielded final concentrations in the assay plates of in 0.1% DMSO. The reference compound, Cyclosporin A, was prepared in an identical manner as above.
# Unstimulated and Stimulated Control wells received an identical volume of TexMACS media/1% DMSO at this time, resulting in a final concentration of 0.1% DMSO across the plate. Mouse anti-CD3/anti-CD28 dynabeads were prepared (following the manufacturers' instructions) in TexMACS media and added to appropriate wells to achieve a final concentration of 1 bead per cell. Unstimulated Control wells then received an identical volume of TexMACS. Plates were centrifuged 72 hours after addition of dynabeads, (300×g for 3 minutes) to pellet the cells and 60% of the supernatant was removed to a fresh plate for analysis by ELISA. After removal of 60% of the supernatant for subsequent ELISA, cell proliferation was assessed using the CCK-8 assay.
# Average response by the standard compound, cyclosporin A, was 1 uM.
# Rat DRG = experiment: Rat dorsal root ganglion excitability response (EFS, Ca2+ transients); assay type: cell-based; details: Rattus norvegicus; Table 3; electrical field stimulation, Ca5 indicator; read-out: Scoring (EC50, Rat DRG excitability)
# Description: Dorsal root ganglions (DRGs) were dissected from adult rats. The tissue was processed, and cells were seeded into call culture plates (48 center wells of one quadrant in 384-well plates) and cultured for 2 days prior to Electrical field stimulation (EFS). To visualize the neuronal excitability response, intracellular Ca^+2 transients were monitored using the Ca^+2 indicator, Ca5. Ca5 was added to the cultures 1 h prior to EFS. Representative test compounds of the invention (i.e., test compounds) and reference compound, tetracaine, were added in concentration-response format encompassing six concentrations, performed in duplicate. The highest concentration tested was typically 30 μM with 1 in 3 dilutions generating the subsequent concentrations.
# Effects on DRG excitability by the test compounds and standard were evaluated using four EFS protocols as disclosed in Table 2.
# Experimental results were performed using two separate sets of plates using separate test compound and standard dilutions, to provide n=2. In the first set of experiments, compounds were added 24 h prior to EFS to increase the possibility to also detect more long-term compound effects. In the second set of experiments the compounds were added directly prior to EFS. Excitability response to EFS was analyzed as the average fluorescence ratio (peak/baseline) change per well. All plates were evaluated using high content imaging equipment post-EFS, imaging the Ca5 background staining to detect any possible compound-related toxic effects.
# Average response by the standard compound, tetracaine, was 4.05 μM.
# Mice (male, C57Bl/6) = experiment: Formalin pain assay in mice; assay type: in vivo; details: Table 7; formalin 2.5%, left plantar
# Description: Mice (male, C57BL/6) were placed singly in a Perspex chamber for approximately 30 min on three successive days to acclimate and thereby reduce stress-induced behaviors. On the fourth day, the experimental animals received a 25 μl injection of 2.5% formalin beneath the left plantar skin using a 29-gauge syringe. […] The total time spent on flinches/licking/biting of the hind paw was recorded by visual observation for every 5 min period/interval for total observation duration of 60 min in two phases, the early phase (0-5 min) and the late phase (15-40 min). Observers were blinded to the treatment group allocation.
# For test compounds, the % protection from 0-60 min was used to assess activity. Scoring for the test compounds was as follows: “A” represents a % protection of 81 to 100%, “B” represents a % protection of 61 to 80%, “C” represents a % protection of 31 to 60% and “D” represents a % protection of 0 to 30%.
# [1] = Metabolism by human liver microsomes; assay type: in vitro ADME; details: Table 8; 10 µM, in the presence of NADPH, 1 mg/mL protein
# Description: Representative compounds of the invention (i.e., test compounds) and the positive control, 7-ethoxycoumarin, were prepared as stock solutions at 10 mM in DMSO and eventually diluted to 10 μM in the test plate, with an appropriate amount of acetonitrle and tris HCl buffer. Final DMSO and acetonitrile concentrations were […] and 0.5% respectively. NADPH was prepared in tris HCl buffer to a stock of 10 mM. A frozen aliquot of live microsomes was retrieved from the freezer (−80° C.) and thawed by placing the tube on wet ice. After thawing, the tubes were gently mixed and the required amount, transferred to tris HCl buffer. Test compounds or positive control were pre-incubated, separately, for 10 minutes, with liver microsomes (1 mg/mL protein), at 37° C., in 100 mM Tris HCl at pH 7.5. After preincubation the reaction was started by adding 1 mM NADPH (pre-equilibrated to […]) and the reaction allowed to proceed for 60 minutes. At 60 minutes, a 50 μL aliquot was removed and quenched with 200 uL of acetonitrile containing a mixture of internal standards (Tolbutamide (500 ng/mL) and Telmistartan (500 ng/mL)) and vortexed then centrifuged at 4000 rmp for 10 minutes (Eppendorf 5810R). The supernatant was transferred to a 96 well plate for LC-MS/MS analysis.
# An LC-MS/MS method was devised for the test compounds and the control, using a AB Sciex API 4000 system coupled to a NEXAR™ UHPLC (Shimadzu) system. Analytes were separated on a Phenomenex Kinetex C18 column (50×2.1 mm, 5 μm) using a gradient that was appropriate for each compound, at a flow rate of 1 ml/minute, utilizing a mobile phase of 0.1% formic acid in MILLI-Q™ water (A) and 0.1% formic acid in acetonitrile (B). The MS instrument was operated in positive mode (ESI+)/negative (ESI−). The multiple reaction monitoring (MRM) transition for test and control compounds was used for the LC-MS/MS analysis. MRM transitions for control compound 7-ethoxycoumarinm were Quadropole 1: 191.0, Quadropole 3: 163.0, dwell time: 75 msec, using curtain gas settings of 5 V, ion-spray voltage of 5500 V, temperature of 50° C. and gas settings for nebulizer and auxiliary set to 30 and 40 psi, respectively. The interface heater was kept on. Entrance potential and collision cell exit potential were varied to tune for a specific compound.
# Using a suitable LC-MS/MS method, the percentage of drug remaining at 60 minutes ([…]) was assessed by comparing the average analyte to internal standard area ratio at 60 minutes to the average analyte to internal standard area ratio at 0 time control, as a percentage, from a 5 to 10 μL sample injection.
# According to the above assay, the representative compounds listed in Table 8 below were active in the Human liver microsome assay at […] and the % of drug remaining after 60 minutes (PDR60), in the presence of NADPH, was assessed by LC-MS/MS. Average PDR60 for the standard compound, 7-ethoxycoumarin was <=65% in the presence of NADPH. Scoring for the test compounds, in the presence of NADPH, was as follows: “A” represents a PDR^60 of 81 to 100%, “B” represents a PDR^60 of 61 to 80%, “C” represents a PDR^60 of 31 to 60% and “D” represents a PDR^60 of 0 to 30%.
"Scoring (% of drug remaining after 60 minutes, PDR60) [1]",Structure (SMILES),IC50 (T cells),EC50 (Rat DRG),"Scoring (% protection from 0-60 min) (Mice (male, C57Bl/6))"
–,"CC(C)CCC[C@@H](C)[C@H]1CC[C@H]2[C@H](CNCc3ccc4c(c3)OC(F)(F)O4)[C@@H]([C@@]3(C)Cc4cn[nH]c4C[C@@H]3CO)CC[C@]12C [Ia-7, ((5R,6S)-5-((1R,3aS,4S,5S,7aR)-4-((((2,2-difluorobenzo[d][1,3]dioxol-5-yl)methyl)amino)methyl)-7a-methyl-1-((R)-6-methylheptan-2-yl)octahydro-1H-inden-5-yl)-5-methyl-4,5,6,7-tetrahydro-1H-indazol-6-yl)methanol]",< 2 µM,–,–
D (a PDR^60 of 0 to 30%),"C=C1CC[C@H]2[C@H](CN)[C@@H]([C@@]3(C)Cc4cnn(-c5ccccc5)c4C[C@@H]3CO)CC[C@]12C [Ia-8, ((5R,6S)-5-((3aS,4R,5S,7aS)-4-(aminomethyl)-7a-methyl-1-methyleneoctahydro-1H-inden-5-yl)-5-methyl-1-phenyl-4,5,6,7-tetrahydro-1H-indazol-6-yl)methanol]",–,2 to 6 µM,D (a % protection of 0 to 30%)
–,"C[C@@]12CCC[C@H]1[C@H](CO)[C@@H]([C@@]1(C)Cc3cn[nH]c3C[C@@H]1CO)CC2 [Ia-27, ((3aS,4S,5S,7aS)-5-((5R,6S)-6-(hydroxymethyl)-5-methyl-4,5,6,7-tetrahydro-1H-indazol-5-yl)-7a-methyloctahydro-1H-inden-4-yl)methanol]",–,6 to 15 µM,D (a % protection of 0 to 30%)
C (a PDR^60 of 31 to 60%),"CC[C@H]1CC[C@H]2[C@H](CN)[C@@H]([C@@]3(C)Cc4cn[nH]c4C[C@@H]3CO)CC[C@]12C [Ia-29, ((5R,6S)-5-((1S,3aS,4S,5S,7aR)-4-(aminomethyl)-1-ethyl-7a-methyloctahydro-1H-inden-5-yl)-5-methyl-4,5,6,7-tetrahydro-1H-indazol-6-yl)methanol]",–,6 to 15 µM,D (a % protection of 0 to 30%)
–,"C=C1CC[C@H]2[C@H](CN)[C@@H]([C@@]3(C)Cc4c(C(F)F)n[nH]c4C[C@@H]3CO)CC[C@]12C [Ia-30, ((5R,6S)-5-((3aS,4R,5S,7aS)-4-(aminomethyl)-7a-methyl-1-methyleneoctahydro-1H-inden-5-yl)-3-(difluoromethyl)-5-methyl-4,5,6,7-tetrahydro-1H-indazol-6-yl)methanol]",6 to 15 µM,–,–
–,"C=C1CC[C@H]2[C@H](CN)[C@@H]([C@@]3(C)Cc4c(C(F)(F)F)n[nH]c4C[C@@H]3CO)CC[C@]12C [Ia-31, ((5R,6S)-5-((3aS,4R,5S,7aS)-4-(aminomethyl)-7a-methyl-1-methyleneoctahydro-1H-inden-5-yl)-5-methyl-3-(trifluoromethyl)-4,5,6,7-tetrahydro-1H-indazol-6-yl)methanol]",2 to 6 µM,–,–
B (a PDR^60 of 61 to 80%),"C[C@@]12CCC[C@H]1[C@H](CN)[C@@H]([C@@]1(C)Cc3cn[nH]c3C[C@@H]1CO)CC2 [Ia-33, ((5R,6S)-5-((3aS,4S,5S,7aS)-4-(aminomethyl)-7a-methyloctahydro-1H-inden-5-yl)-5-methyl-4,5,6,7-tetrahydro-1H-indazol-6-yl)methanol]",–,6 to 15 µM,C (a % protection of 31 to 60%)
B (a PDR^60 of 61 to 80%),"C[C@H]1CC[C@H]2[C@H](CN)[C@@H]([C@@]3(C)Cc4cn[nH]c4C[C@@H]3CO)CC[C@]12C [Ia-34, ((5R,6S)-5-((1S,3aS,4S,5S,7aR)-4-(aminomethyl)-1,7a-dimethyloctahydro-1H-inden-5-yl)-5-methyl-4,5,6,7-tetrahydro-1H-indazol-6-yl)methanol]",–,6 to 15 µM,C (a % protection of 31 to 60%)
A (a PDR^60 of 81 to 100%),"C=C1[C@@H](O)C[C@H]2[C@H](CO)[C@@H]([C@@]3(C)Cc4cn[nH]c4C[C@@H]3CO)CC[C@]12C [Ia-66, (2S,3aS,4R,5S,7aS)-4-(hydroxymethyl)-5-((5R,6S)-6-(hydroxymethyl)-5-methyl-4,5,6,7-tetrahydro-1H-indazol-5-yl)-7a-methyl-1-methyleneoctahydro-1H-inden-2-ol]",–,> 15 µM,D (a % protection of 0 to 30%)
A (a PDR^60 of 81 to 100%),"C=C1CC[C@H]2[C@H](CN)[C@@H]([C@@]3(C)Cc4conc4C[C@@H]3CO)CC[C@]12C [Ig-1, ((5R,6S)-5-((3aS,4R,5S,7aS)-4-(aminomethyl)-7a-methyl-1-methyleneoctahydro-1H-inden-5-yl)-5-methyl-4,5,6,7-tetrahydrobenzo[c]isoxazol-6-yl)methanol]",–,6 to 15 µM,C (a % protection of 31 to 60%)
